Series [1] concerns the target CLK3 (Homo sapiens, UniProt P49761). In words: Kinase selectivity panel. The note with it: [ATP] = 1 mM. The format is biochemical.
Series [2] addresses SGK3 (Homo sapiens, UniProt Q96BR1). In words: Kinase selectivity panel. The series is classed as biochemical. As to conditions: [ATP] = 1 mM.
A short description of series [3]: Tolerability in tumor-bearing SCID mice. The note with it: MOLM-16 and KMS-12-BM tumor-bearing mice, oral twice a day up to 100 mg/kg. The format is in vivo. The procedure: Non- GLP studies intended to characterize the pharmacology of INCB053914 were conducted in accordance with Incyte Corporation's Animal Use Protocols and DuPont Stine-Haskell SOPs. Animals were housed in barrier facilities fully accredited by the Association for Assessment and Accreditation of Laboratory Animal Care, International. All of the procedures were conducted under the supervision of a veterinarian and in accordance with the U.S. Public Health Service Policy on Humane Care and Use of Laboratory Animals. […] Analgesics and anesthetics could be used to minimize animal suffering and distress; neither were required during these studies. Animals on study were monitored twice daily and there were no unexpected deaths.
For the evaluation of the effects of INCB053914 on tumor growth, tumor-bearing mice (MOLM-16 xenograft, eight mice/group; KMS-12-BM xenograft, nine mice/group) were dosed orally twice a day with INCB053914 at doses ranging from 0 (vehicle) to 100 mg/kg for 15 days.

Series [4] deals with PIM2 expression and 4E-BP1 phosphorylation in whole blood samples. The series can be described thus: Pharmacodynamic assessment of blood samples from patients with AML in the phase 1/2 trial. The series is classed as in vivo, human. The note with it: patients with AML receiving INCB053914 100 mg twice a day; blood 0 to 6 hours post-dose.
The target in series [5] is FAK (Homo sapiens, UniProt Q05397). In words: Kinase selectivity panel. The format is biochemical. As to conditions: [ATP] = 1 mM.
Series [6] has as its target KDR (Homo sapiens, UniProt P35968). The series can be described thus: Kinase selectivity panel. The series is classed as biochemical. As to conditions: [ATP] = 1 mM.
The target in series [7] is SGK1 (Homo sapiens, UniProt O00141). The series can be described thus: Kinase selectivity panel. The series is classed as biochemical. The note with it: [ATP] = 1 mM.
Sequence of SGK1 (O00141 whole entry, species assumed): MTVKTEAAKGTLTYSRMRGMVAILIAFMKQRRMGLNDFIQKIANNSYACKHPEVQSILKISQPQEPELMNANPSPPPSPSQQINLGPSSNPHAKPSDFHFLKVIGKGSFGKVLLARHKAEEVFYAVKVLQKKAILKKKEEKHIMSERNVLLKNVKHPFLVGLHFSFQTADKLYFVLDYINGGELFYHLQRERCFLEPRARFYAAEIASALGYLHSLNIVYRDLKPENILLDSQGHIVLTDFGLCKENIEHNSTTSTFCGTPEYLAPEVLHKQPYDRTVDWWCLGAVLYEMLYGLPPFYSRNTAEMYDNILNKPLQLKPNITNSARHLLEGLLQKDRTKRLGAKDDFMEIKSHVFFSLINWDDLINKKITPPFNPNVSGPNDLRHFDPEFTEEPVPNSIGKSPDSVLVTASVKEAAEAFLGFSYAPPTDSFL
Series [8] has as its target ZAP70 (Homo sapiens, UniProt P43403). In words: Kinase selectivity panel. The series is classed as biochemical. As to conditions: [ATP] = 1 mM.
Series [9] is described as follows: Plasma concentrations of INCB053914 in tumor-bearing mice. The format is in vivo, mouse. As to conditions: up to 16 hours post oral administration, MOLM-16 and KMS-12-BM tumor-bearing mice. The protocol: Human MOLM-16 (AML) and KMS-12-BM (MM) xenografts were established in SCID mice. For the evaluation of intratumoral pBAD inhibition, tumor-bearing mice (three to eight mice/group) were treated with a single oral dose of INCB053914 at doses ranging from 0 (vehicle) to 100 mg/kg. In one representative experiment, mice were sacrificed 4 hours after a single dose, and tumors were collected to analyze the levels of pBAD relative to those of vehicle-administered controls. Plasma samples were collected for pharmacokinetic analysis.
Concentrations of INCB053914 in plasma were analyzed using liquid chromatography tandem–mass spectrometry at 2, 4, 8, and 16 hours postdose (see Supporting Information, S3 File).
Blood samples from each study were collected using EDTA and centrifuged to obtain plasma. The calibration curves were prepared in mouse plasma (BioreclamationIVT, Westbury, New York). Samples (50 µl) were placed in a 2-ml square well plate (Costar, Corning, New York). Acetonitrile/methanol 9/1 v/v (550 µl) containing an internal standard was added for precipitation of the protein. The 96-well plate was covered, vortexed for 5 minutes, and centrifuged for 10 minutes at 3,000 rpm. […] The samples were analyzed for INCB053914 by liquid chromatography tandem–mass spectrometry using gradient high-performance liquid chromatography and atmospheric pressure chemical ionization.

Series [10] has as its target TRKA (Homo sapiens, UniProt P04629). The series can be described thus: Kinase selectivity panel. The series is classed as biochemical. The note with it: [ATP] = 1 mM.
The subject of series [11] is Pfeiffer DLBCL cells. In words: In vitro proliferation of Pfeiffer DLBCL cells, single agents and combination. The format is cell-based. The protocol: Synergistic effects of INCB053914 in combination with INCB050465, cytarabine, or itacitinib, were assessed based on the Bliss independence model. In this model, the expected additive effect, with the assumption that concentration dependent effects of 2 drugs (A and B) are independent, is given by the equation EIND = EA + EB – EA •EB, where 0 ≤ EIND ≤ 1; EA and EB are the magnitudes of effects of A and B alone at given concentrations.
The interaction between effects of A and B can be described by the equation Combination Index = EIND/ EOBS, where EOBS is the observed combined effect of A + B expressed as a probability (0 ≤ EOBS ≤ 1). If the point estimate of Combination Index and its upper 97.5% confidence limit are <1 then the combined effect is synergistic; if the 2-sided 95% confidence intervals (CI) encompass 1 then the combined effect is additive (ie, independent); if the point estimate of Combination Index and the lower 2.5% confidence limit are >1 then the combined effect of A + B are antagonistic.

Series [12] addresses RSK2 (Homo sapiens, UniProt P51812). The series can be described thus: Kinase selectivity panel. The format is biochemical.
Series [13] concerns PIM2 expression in PBMCs. The series can be described thus: PIM2 expression in PBMCs from whole blood of patients with AML treated ex vivo. The format is cell-based. The note with it: Homo sapiens, PBMC, read-out: EC50 for increased PIM2 expression, whole blood treated overnight ex vivo. The protocol: The effects of INCB053914 on pBAD, pp70S6K, and p4E-BP1 levels and on the expression of PIM isozymes also were assessed ex vivo in primary bone marrow blasts (Stem Cell and Xenograft Core, University of Pennsylvania, Philadelphia, Pennsylvania) or in peripheral blood mononuclear cells (PBMCs) derived from whole blood samples obtained with informed written consent from adult patients with AML enrolled in an ongoing phase 1/2 dose-escalation trial, which was conducted in accordance with the study protocol approved by the respective institutional review boards or independent ethics committees. Only samples initially containing >90% viable cells were used (assessed by Trypan Blue staining). Immediately after thawing, the blasts were cultured in RPMI + 10% FBS with INCB053914 for 2 hours at 37°C, before lysis. For determinations of PIM2 expression in PBMCs, whole blood samples were treated overnight with increasing concentrations of INCB053914; total PBMCs were isolated by Ficoll-Paque density gradient centrifugation before lysis. The levels of PIM isozymes and phosphoproteins in cell lysates were detected by Western blotting using the same primary antibodies as above.

Series [14] deals with ERBB4 (Homo sapiens, UniProt Q15303). In words: Kinase selectivity panel. The format is biochemical. As to conditions: [ATP] = 1 mM.
The target in series [15] is IGF1R (Homo sapiens, UniProt P08069). In words: Kinase selectivity panel. The format is biochemical. The note with it: [ATP] = 1 mM.
Series [16] deals with HIPK3 (Homo sapiens, UniProt Q9H422). The series can be described thus: Kinase selectivity panel. The format is biochemical. As to conditions: [ATP] = 1 mM.
Sequence of HIPK3 (Q9H422 whole entry): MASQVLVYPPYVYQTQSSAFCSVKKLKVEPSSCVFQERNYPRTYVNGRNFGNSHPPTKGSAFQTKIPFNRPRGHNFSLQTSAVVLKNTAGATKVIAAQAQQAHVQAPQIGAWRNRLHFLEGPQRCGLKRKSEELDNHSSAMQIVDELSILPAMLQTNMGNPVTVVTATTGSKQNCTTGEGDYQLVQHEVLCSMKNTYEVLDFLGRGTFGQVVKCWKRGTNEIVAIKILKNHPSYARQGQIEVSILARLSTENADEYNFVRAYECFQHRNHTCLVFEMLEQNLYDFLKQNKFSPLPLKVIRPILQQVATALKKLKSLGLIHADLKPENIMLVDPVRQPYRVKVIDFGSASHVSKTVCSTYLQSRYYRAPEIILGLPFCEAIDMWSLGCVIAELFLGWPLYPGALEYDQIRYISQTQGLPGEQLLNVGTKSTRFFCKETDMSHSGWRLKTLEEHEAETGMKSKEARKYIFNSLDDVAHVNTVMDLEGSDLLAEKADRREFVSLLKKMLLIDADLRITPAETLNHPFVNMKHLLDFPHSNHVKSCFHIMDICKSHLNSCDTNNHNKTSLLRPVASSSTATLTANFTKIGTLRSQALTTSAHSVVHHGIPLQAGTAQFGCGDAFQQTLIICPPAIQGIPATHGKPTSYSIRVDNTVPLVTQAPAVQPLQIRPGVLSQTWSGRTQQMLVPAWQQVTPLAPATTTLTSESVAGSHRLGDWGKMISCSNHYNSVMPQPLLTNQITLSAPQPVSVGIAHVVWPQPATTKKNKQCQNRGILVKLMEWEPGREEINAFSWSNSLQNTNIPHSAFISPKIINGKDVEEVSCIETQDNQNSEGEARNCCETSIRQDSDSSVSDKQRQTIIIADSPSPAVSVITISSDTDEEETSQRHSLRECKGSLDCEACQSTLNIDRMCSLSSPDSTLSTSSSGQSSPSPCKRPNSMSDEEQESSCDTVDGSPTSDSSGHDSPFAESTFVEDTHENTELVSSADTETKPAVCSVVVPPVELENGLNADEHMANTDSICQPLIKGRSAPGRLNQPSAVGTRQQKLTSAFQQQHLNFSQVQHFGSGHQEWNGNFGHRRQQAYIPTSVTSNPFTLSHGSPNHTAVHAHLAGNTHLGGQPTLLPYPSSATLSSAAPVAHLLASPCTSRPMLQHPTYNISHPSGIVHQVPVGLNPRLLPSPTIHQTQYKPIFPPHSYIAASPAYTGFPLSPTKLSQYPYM

The structures appear in SMILES notation. Where only a bound is given, the exact number is not on record here.

A word on the IC50: it is the concentration needed to halve the response being measured. Read a low IC50 as inhibition by little substance. By EC50 is commonly meant the concentration giving half of the maximal effect.

Sequence of RSK2 (P51812 whole entry): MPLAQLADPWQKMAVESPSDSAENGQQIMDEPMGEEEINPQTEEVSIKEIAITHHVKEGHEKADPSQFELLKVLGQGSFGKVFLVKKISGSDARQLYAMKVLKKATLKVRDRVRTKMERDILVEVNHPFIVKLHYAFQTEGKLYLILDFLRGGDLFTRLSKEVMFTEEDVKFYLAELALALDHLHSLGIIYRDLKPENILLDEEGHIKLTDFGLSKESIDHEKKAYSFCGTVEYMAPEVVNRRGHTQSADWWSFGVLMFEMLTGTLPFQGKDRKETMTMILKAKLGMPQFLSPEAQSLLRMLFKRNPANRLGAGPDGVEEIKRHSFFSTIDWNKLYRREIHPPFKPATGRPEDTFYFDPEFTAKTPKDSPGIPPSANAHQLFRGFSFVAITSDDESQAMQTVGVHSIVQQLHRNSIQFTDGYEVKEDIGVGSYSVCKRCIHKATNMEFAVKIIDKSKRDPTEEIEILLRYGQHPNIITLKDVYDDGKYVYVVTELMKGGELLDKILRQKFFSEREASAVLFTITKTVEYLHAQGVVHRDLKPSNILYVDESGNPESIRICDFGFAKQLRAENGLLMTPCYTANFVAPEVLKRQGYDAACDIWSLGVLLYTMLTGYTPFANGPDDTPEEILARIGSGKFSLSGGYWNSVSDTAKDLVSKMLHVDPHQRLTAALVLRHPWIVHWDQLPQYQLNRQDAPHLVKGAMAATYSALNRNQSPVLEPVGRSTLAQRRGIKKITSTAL
Sequence of KDR (P35968 20-1356): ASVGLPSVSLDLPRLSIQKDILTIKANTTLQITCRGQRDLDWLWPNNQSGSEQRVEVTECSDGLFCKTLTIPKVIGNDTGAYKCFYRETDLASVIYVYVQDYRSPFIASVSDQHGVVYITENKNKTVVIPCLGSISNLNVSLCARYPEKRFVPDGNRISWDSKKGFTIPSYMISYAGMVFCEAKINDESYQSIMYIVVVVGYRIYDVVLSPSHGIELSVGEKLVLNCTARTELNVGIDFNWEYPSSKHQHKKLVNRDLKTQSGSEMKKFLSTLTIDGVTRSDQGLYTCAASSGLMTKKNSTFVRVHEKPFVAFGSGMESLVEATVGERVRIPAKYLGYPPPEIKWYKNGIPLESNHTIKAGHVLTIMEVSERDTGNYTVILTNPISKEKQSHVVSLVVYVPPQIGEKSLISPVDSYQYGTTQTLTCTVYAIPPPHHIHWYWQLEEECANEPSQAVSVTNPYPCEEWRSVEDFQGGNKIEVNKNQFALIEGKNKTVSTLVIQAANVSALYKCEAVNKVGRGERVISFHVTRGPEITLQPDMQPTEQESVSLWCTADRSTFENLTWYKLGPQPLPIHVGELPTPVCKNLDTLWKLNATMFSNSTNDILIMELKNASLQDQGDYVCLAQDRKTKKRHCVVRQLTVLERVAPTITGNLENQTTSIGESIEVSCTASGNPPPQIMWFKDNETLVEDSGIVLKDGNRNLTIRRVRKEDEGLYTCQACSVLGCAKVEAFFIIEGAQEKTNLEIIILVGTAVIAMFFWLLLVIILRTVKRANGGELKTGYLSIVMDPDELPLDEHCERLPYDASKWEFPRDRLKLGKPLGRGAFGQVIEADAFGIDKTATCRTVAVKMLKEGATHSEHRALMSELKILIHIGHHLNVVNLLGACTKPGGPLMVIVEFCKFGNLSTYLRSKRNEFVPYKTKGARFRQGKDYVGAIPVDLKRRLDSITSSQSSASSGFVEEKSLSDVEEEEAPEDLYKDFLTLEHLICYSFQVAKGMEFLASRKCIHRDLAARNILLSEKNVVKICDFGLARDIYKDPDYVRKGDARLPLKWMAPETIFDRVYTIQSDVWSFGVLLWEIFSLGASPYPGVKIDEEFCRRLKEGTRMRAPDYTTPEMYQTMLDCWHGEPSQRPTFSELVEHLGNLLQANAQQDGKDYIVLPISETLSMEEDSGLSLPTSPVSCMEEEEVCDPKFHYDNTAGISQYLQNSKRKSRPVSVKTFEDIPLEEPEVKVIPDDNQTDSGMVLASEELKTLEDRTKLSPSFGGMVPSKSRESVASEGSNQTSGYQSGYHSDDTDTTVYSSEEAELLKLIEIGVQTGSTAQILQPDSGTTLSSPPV
Sequence of SGK3 (Q96BR1 whole entry, species assumed): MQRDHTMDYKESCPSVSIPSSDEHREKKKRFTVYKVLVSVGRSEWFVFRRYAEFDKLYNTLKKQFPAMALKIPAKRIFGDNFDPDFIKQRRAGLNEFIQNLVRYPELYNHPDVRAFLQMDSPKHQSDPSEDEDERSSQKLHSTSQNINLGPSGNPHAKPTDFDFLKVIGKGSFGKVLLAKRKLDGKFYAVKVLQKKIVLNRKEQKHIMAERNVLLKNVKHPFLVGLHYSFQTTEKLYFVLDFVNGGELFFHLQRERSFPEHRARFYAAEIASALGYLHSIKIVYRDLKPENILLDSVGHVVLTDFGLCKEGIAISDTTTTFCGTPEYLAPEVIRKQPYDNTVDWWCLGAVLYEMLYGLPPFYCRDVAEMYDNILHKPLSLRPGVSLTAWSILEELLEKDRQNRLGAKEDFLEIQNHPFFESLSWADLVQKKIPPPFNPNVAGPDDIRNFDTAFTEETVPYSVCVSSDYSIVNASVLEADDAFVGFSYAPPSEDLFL
Sequence of TRKA (P04629 33-796, species assumed): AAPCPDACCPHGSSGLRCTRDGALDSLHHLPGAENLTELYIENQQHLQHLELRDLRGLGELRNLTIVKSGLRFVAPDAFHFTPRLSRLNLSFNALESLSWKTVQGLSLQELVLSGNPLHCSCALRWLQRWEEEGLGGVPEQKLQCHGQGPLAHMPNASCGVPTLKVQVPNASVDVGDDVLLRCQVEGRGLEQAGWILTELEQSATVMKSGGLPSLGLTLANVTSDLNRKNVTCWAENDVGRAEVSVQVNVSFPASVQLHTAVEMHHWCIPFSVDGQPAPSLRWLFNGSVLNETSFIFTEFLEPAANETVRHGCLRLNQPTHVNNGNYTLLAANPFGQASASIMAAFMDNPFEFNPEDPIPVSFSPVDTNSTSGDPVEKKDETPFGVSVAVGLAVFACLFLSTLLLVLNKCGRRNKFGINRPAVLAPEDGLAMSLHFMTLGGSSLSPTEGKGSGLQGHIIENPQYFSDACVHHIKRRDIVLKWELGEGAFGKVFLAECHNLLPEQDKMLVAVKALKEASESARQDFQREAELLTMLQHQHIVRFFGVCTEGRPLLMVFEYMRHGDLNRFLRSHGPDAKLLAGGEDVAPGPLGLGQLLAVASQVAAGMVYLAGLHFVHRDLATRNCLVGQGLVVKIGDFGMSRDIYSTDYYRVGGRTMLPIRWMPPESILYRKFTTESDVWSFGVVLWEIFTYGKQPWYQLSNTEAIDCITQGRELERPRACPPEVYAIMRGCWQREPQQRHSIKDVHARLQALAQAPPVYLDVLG

Take `C[C@H]1CN(c2c(NC(=O)c3ccc(F)c(-c4c(F)cccc4F)n3)cnc3c2CC[C@H]3O)C[C@@H](N)[C@@H]1O.O=P(O)(O)O` [INCB053914, N-((R)-4-((3R,4R,5S)-3-amino-4-hydroxy-5-methylpiperidin-1-yl)-7-hydroxy-6,7-dihydro-5H-cyclopenta[b]pyridin-3-yl)-6-(2,6-difluorophenyl)-5-fluoropicolinamide phosphate]: the IC50 in series [1], in [2], in series [5], in [6], in [7] and in series [8] was more than 20 µM each time. Further, the IC50 was more than 20 µM in series [10]; 7.12 µM in [12] ([ATP] = 1 mM); 7.1 µM in [12] (as given in the text); more than 20 µM in series [14]; more than 20 µM in series [15]; more than 20 µM in [16]. The tolerability entry in [3] is recorded as “tolerated at all doses tested”. Further, in series [4], the 4E-BP1 phosphorylation entry was “a decrease in 4E-BP1 phosphorylation”. Besides, the PIM2 expression levels entry in series [4] is on record as “an increase in PIM2 expression levels”. Also, the “plasma concentrations versus dose” value in [9] was “suggested dose proportionality”. In [11], the “proliferation of Pfeiffer cells, single agent” value is reported as “inhibited”. In [13], the EC50 was determined as 0.116 µM.

(Values after PMC6013247, “Preclinical characterization of INCB053914, a novel pan-PIM kinase inhibitor, alone and in combination with anticancer agents, in models of hematologic malignancies” (PLoS ONE, 2018).)
